Assay results taken from patent US20180340225A1 (SHANGHAI INSTITUTE FOR ENDOCRINE AND METABOLIC DISEASES, priority 2015, published 2018).

Tested on: patients with Type 2 diabetes
Assay: Clinical efficacy indexes before and after 3 months of Acarbose treatment in naïve patients with Type 2 diabetes, by enterotype
Type: in vivo, human
Conditions: Prevotella enterotype, After treatment
Procedure: For naïve patients with Type 2 diabetes, their liver and kidney functions, blood glucose and lipid levels, intestinal hormones, inflammatory factors, and cardiovascular risk-related factors are evaluated before medication. Their stool, urine, and blood samples are retained. […] The patients' blood glucose levels are followed up every month within 3 months, and the medication is adjusted according to the blood glucose level. Three months later, the pre-medication assessment is repeated, and the urine, stool and blood samples are retained.
a) A randomized, opened, positive control method is adopted to collect the naïve patients with Type 2 diabetes and normal controls of their spouses. […] The newly diagnosed patients of Type 2 diabetes without medication receive routine examinations, including the retention of stool and blood samples.
i. Draw venous blood 15 ml under fasting condition, of which, 1.5 ml is used for detection of plasma glucose, 6.5 ml is added to ordinary tubes (including aprotinin, DPPV inhibitor), and 6.5 ml is added to anticoagulant tubes (including heparin and RNA later)
ii. Centrifuge the blood in ordinary tube at 4° C., when serum is separated out, draw about 3 ml, and divide to three 1.5 ml Eppendorf on average, then tighten the tube caps;
iii. Centrifuge the anticoagulation blood immediately at 4° C., to separate out about 3 ml of plasma, then divide to three 1.5 ml imported RNAase free Eppendorf tubes on average, […]

With C[C@H]1O[C@H](O[C@H]2[C@H](O)[C@@H](O)[C@@H](O[C@H]3[C@H](O)[C@@H](O)C(O)O[C@@H]3CO)O[C@@H]2CO)[C@H](O)[C@@H](O)[C@@H]1N[C@H]1C=C(CO)[C@@H](O)[C@H](O)[C@H]1O (stereo partly shown) [Acarbose] the “AKP Mean” value was 77.5, the “ALB Mean” value was 44.39 and the “ALT Mean” value was 44.36. The “APOA Mean” value was 1.267, the “APOB Mean” value was 0.9273 and the “AST Mean” value was 29.36. The “Adipisin Mean” value was 3221619.467, the “Adpn Mean” value was 10063264.07 and the “BMI Mean” value was 25.11. For the same compound, the “BW Mean” value was 72.63, the “CP0 Mean” value was 2.485 and the “CP30 Mean” value was 2.802. The “CP60 Mean” value was 3.609, the “CP120 Mean” value was 5.305 and the “CP180 Mean” value was 4.735. The “DBIL Mean” value was 6.293, the “DBP Mean” value was 74.93 and the “ENDOM Mean” value was 14.27. The “Endothelin Mean” value was 4.776, the “FABP3 Mean” value was 2147 and the “FABP4 Mean” value was 10510.4. For the same compound, the “FGF1M Mean” value was 24.33, the “FGF2M Mean” value was 13.67 and the “FGF19M Mean” value was 19.3. For the same compound, the “FGF23M Mean” value was 43.47, the “G30 Mean” value was 7.601 and the “G60 Mean” value was 9.055. The “G120 Mean” value was 9.171, the “G180 Mean” value was 7.853 and the “GIP0 Mean” value was 57.4. The “GIP30 Mean” value was 208.4, the “GIP60 Mean” value was 217.2 and the “GIP120 Mean” value was 227.8. For the same compound, the “GIP180 Mean” value was 194.8, the “GMCSFM Mean” value was 67.97 and the “GO Mean” value was 6.712. The “HB Mean” value was 147.8, the “HBA1C Mean” value was 6.313 and the “HDL Mean” value was 2.869. The “HGF Mean” value was 400.9, the “HIP Mean” value was 97.21 and the “HOMA.IR Mean” value was 3.327. For the same compound, the “IFNr1 Mean” value was 38.8, the “IL1B Mean” value was 0.9107 and the “IL1bM Mean” value was 22.23. For the same compound, the “IL2M Mean” value was 58.77, the “IL4M Mean” value was 31.074 and the “IL5M Mean” value was 43.97. The “IL6M Mean” value was 40.53, the “IL6 Mean” value was 2.665 and the “IL8 Mean” value was 15.44. The “IL9M Mean” value was 84.9, the “IL10 Mean” value was 1.798 and the “IL12 Mean” value was 9.944. The “IL13 Mean” value was 279.4, the “IL15M Mean” value was 291.8 and the “IL17AM Mean” value was 32.03. For the same compound, the “IL17EM Mean” value was 21.23, the “IL17FM Mean” value was 232.6 and the “IL21 Mean” value was 34.47. The “IL22M Mean” value was 30.5, the “IL23M Mean” value was 41.7 and the “IL27 Mean” value was 73.1. The “IL28a Mean” value was 18.37, the “IL31M Mean” value was 112.3 and the “IL33M Mean” value was 43.5. The “INS0 Mean” value was 11.734, the “INS30 Mean” value was 14.21 and the “INS60 Mean” value was 23.404. For the same compound, the “INS120 Mean” value was 27.84, the “INS180 Mean” value was 20.88 and the “K Mean” value was 4.054. For the same compound, the “LBP Mean” value was 17.616, the “LDL Mean” value was 1.169 and the “LEPTIN Mean” value was 4522. The “LPA Mean” value was 214.8, the “Lymph Mean” value was 28.21 and the “MCP1 Mean” value was 252.8. The “MIP3A Mean” value was 29.94, the “NEU Mean” value was 63.59 and the “NGAL Mean” value was 174248.3333. The “NGF Mean” value was 2.434, the “Na Mean” value was 142.2 and the “PAI1 Mean” value was 61006.73333. The “PDGFAA Mean” value was 4507, the “PDGFAABB Mean” value was 24006.8 and the “PP0 Mean” value was 69.67. For the same compound, the “PP30 Mean” value was 376.7, the “PP60 Mean” value was 318.92 and the “PP120 Mean” value was 260.1. For the same compound, the “PP180 Mean” value was 204.7, the “RANTES Mean” value was 47562.53333 and the “RBC Mean” value was 4.945. The “RCv Mean” value was 0.4421, the “SBP Mean” value was 119.8 and the “TBIL Mean” value was 14.9. For the same compound, the “TC Mean” value was 4.883, the “TG Mean” value was 1.694 and the “TNFBM Mean” value was 44.7. The “TNFa Mean” value was 4.572, the “TPRO Mean” value was 73.55 and the “Trophonin M Mean” value was 17.9. The “WAIST Mean” value was 88.93, the “WBC Mean” value was 6.146 and the “WHR Mean” value was 0.9136. The “bun Mean” value was 326.5, the “creatine Mean” value was 67.42 and the “crp Mean” value was 19.638. For the same compound, the “egf Mean” value was 267.604, the “fetuinA Mean” value was 417.3 and the “fgf1 Mean” value was 13.79. For the same compound, the “fgf2 Mean” value was 43.98, the “fgf21M Mean” value was 97.93 and the “fgf21 Mean” value was 0.296. For the same compound, the “monocyte Mean” value was 5.829, the “mpo Mean” value was 467.3 and the “oscatinM Mean” value was 101.1. For the same compound, the “pCP0 Mean” value was 1066, the “pCP30 Mean” value was 1362 and the “pCP60 Mean” value was 1935.42. The “pCP120 Mean” value was 2723.04, the “pCP180 Mean” value was 2526 and the “pGLP10 Mean” value was 3.644. For the same compound, the “pGLP130 Mean” value was 11.41, the “pGLP160 Mean” value was 13.72 and the “pGLP1120 Mean” value was 9.07. The “pGLP1180 Mean” value was 6.458, the “pHOMA.IR Mean” value was 2.717 and the “pgh0 Mean” value was 53.4025. For the same compound, the “pgh30 Mean” value was 64.28, the “pgh60 Mean” value was 56.35 and the “pgh120 Mean” value was 42.5275. The “pgh0180 Mean” value was 50.87, the “pgluc0 Mean” value was 39.2 and the “pgluc30 Mean” value was 41.17. The “pgluc60 Mean” value was 36.68, the “pgluc120 Mean” value was 29.63 and the “pgluc180 Mean” value was 30.43. The “pins0 Mean” value was 416.3, the “pins30 Mean” value was 639.9 and the “pins60 Mean” value was 969. The “pins120 Mean” value was 1373, the “pins180 Mean” value was 1153 and the “platelet Mean” value was 206.3. The “ppyy0 Mean” value was 43.57, the “ppyy30 Mean” value was 64.34 and the “ppyy60 Mean” value was 56.78. For the same compound, the “ppyy120 Mean” value was 54.02, the “ppyy180 Mean” value was 51.59 and the “rGT Mean” value was 43.12. The “resistin Mean” value was 25013.66667, the “sicam1 Mean” value was 123 and the “svcam1 Mean” value was 545.498. The “urea Mean” value was 4.954, the “vegfa Mean” value was 340.2 and the “vegfc Mean” value was 128.7. For the same compound, the “vegfd Mean” value was 195.1.
